The structures appear in SMILES notation. Where “and” joins values, the source holds several entries; their conditions need not be identical. Equal values may be shown once. Inconclusive results and toxic doses are left out.

Drawing on PubChem BioAssay AID330 (DTP/NCI, 2004), this text covers T/C for 20 molecules.

The experiment concerns P388 leukemia ip, CD2F1 mice, survival T/C. Kind of experiment: NCI In Vivo Anticancer Drug Screen. Data for tumor model P388 Leukemia (intraperitoneal) in CD2F1 (CDF1) mice. The following applies: endpoint: median survival time, higher = longer survival. In a few lines: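 Mice carrying the transplanted tumor received test compound or vehicle. Survival was recorded in each group, and the value is the treated-group measurement divided by that of the vehicle-treated control group.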

Setting [1] is: dose: 50.0 mg/kg/injection, schedule: Q04DX003 (ip), vehicle: Klucel (hydroxypropylcellulose) (HPC).
[2] abbreviates: dose: 100.0 mg/kg/injection, schedule: Q04DX003 (ip), vehicle: Klucel (hydroxypropylcellulose) (HPC).
Setting [3] is: dose: 50.0 mg/kg/injection, schedule: Q01DX005 (ip), vehicle: saline with Tween-80.
[4] abbreviates: dose: 100.0 mg/kg/injection, schedule: Q01DX005 (ip), vehicle: saline with Tween-80.
[5] abbreviates: dose: 50.0 mg/kg/injection, schedule: Q01DX009 (ip), vehicle: saline.
Where [6] appears, read: dose: 100.0 mg/kg/injection, schedule: Q01DX009 (ip), vehicle: saline.
The mark [7] stands for this setting: dose: 200.0 mg/kg/injection, schedule: Q01DX009 (ip), vehicle: saline.
Setting [8] is: dose: 60.0 mg/kg/injection, schedule: Q01DX005 (ip), vehicle: saline with Tween-80.
Setting [9] is: dose: 120.0 mg/kg/injection, schedule: Q01DX005 (ip), vehicle: saline with Tween-80.
[10] abbreviates: dose: 50.0 mg/kg/injection, schedule: Q01DX005 (ip), vehicle: Klucel (hydroxypropylcellulose) (HPC).
Setting [11] is: dose: 100.0 mg/kg/injection, schedule: Q01DX005 (ip), vehicle: Klucel (hydroxypropylcellulose) (HPC).
The mark [12] stands for this setting: dose: 50.0 mg/kg/injection, schedule: Q01DX001 (ip), vehicle: Klucel (hydroxypropylcellulose) (HPC).
Setting [13] is: dose: 100.0 mg/kg/injection, schedule: Q01DX001 (ip), vehicle: Klucel (hydroxypropylcellulose) (HPC).
The mark [14] stands for this setting: dose: 200.0 mg/kg/injection, schedule: Q01DX001 (ip), vehicle: Klucel (hydroxypropylcellulose) (HPC).
Where [15] appears, read: dose: 50.0 mg/kg/injection, schedule: Q01DX009 (ip), vehicle: saline with Tween-80.

For `CC(C(=O)S)C(O)(c1ccccc1)c1ccccc1` (stereo not drawn), the T/C runs as follows: (dose: 25.0 mg/kg/injection, schedule: Q04DX003 (ip), vehicle: Klucel (hydroxypropylcellulose) (HPC)) 98 % of control; under setting [1], 101 % of control; under setting [2], 107 % of control and 93 % of control.

For the molecule `CS(=O)(=O)CS(=O)CS(=O)CS(=O)CC(NC(=O)CCC(N)C(=O)O)C(=O)O` (stereo not drawn), the T/C runs as follows: (dose: 12.5 mg/kg/injection, schedule: Q01DX005 (ip), vehicle: saline) 96 % of control; (dose: 25.0 mg/kg/injection, schedule: Q01DX005 (ip), vehicle: saline) 98 % of control; (dose: 50.0 mg/kg/injection, schedule: Q01DX005 (ip), vehicle: saline) 97 % of control; (dose: 100.0 mg/kg/injection, schedule: Q01DX005 (ip), vehicle: suspension in saline) 108 % of control.

Turning to `CCCCOP(=O)(OCCCC)C(CC(=O)N(CCCC)CCCC)C(=O)N(CCCC)CCCC` (stereo not drawn), the T/C was 98 % of control under setting [3] and 102 % of control under setting [4].

On to `CC(C)N(CCO)CC(O)Cn1cnc2c(N)ncnc21` (stereo not drawn) (tested in a mixture with another compound), for which the T/C runs as follows: (dose: 60.0 mg/kg/injection, schedule: Q01DX005 (ip), vehicle: saline) 97 % of control; (dose: 120.0 mg/kg/injection, schedule: Q01DX005 (ip), vehicle: saline) 94 % of control; (dose: 240.0 mg/kg/injection, schedule: Q01DX005 (ip), vehicle: saline) 93 % of control.

On to `C/C(=N\NC(N)=Nc1ccc(Cl)cc1)c1ccc2c(c1)Cc1ccccc1-2`, for which the T/C is, setting by setting: (dose: 100.0 mg/kg/injection, schedule: Q04DX002 (ip), vehicle: saline with Tween-80) 104 % of control; (dose: 200.0 mg/kg/injection, schedule: Q04DX002 (ip), vehicle: saline with Tween-80) 111 % of control; (dose: 400.0 mg/kg/injection, schedule: Q04DX002 (ip), vehicle: saline with Tween-80) 114 % of control.

Take `CCCc1[nH]n(-c2cccc([N+](=O)[O-])c2)c(=O)c1N=Nc1ccc(Cl)cc1`: the T/C under setting [5] was 93 % of control, the T/C under setting [6] was 90 % of control and the T/C under setting [7] is 87 % of control.

For the molecule `Nc1ccc2c(SCCCCCCCCSc3c4ccccc4nc4cc(N)ccc34)c3ccccc3nc2c1`, the T/C by setting is: under setting [8], 106 % of control; under setting [9], 106 % of control.

As to `COc1ccc2c(c1)CCC1(C)CC(=O)C(Br)=C21` (stereo not drawn), the T/C reads like this: (dose: 6.25 mg/kg/injection, schedule: Q01DX009 (ip), vehicle: Klucel (hydroxypropylcellulose) (HPC)) 109 % of control and 112 % of control and 114 % of control; (dose: 12.5 mg/kg/injection, schedule: Q01DX009 (ip), vehicle: Klucel (hydroxypropylcellulose) (HPC)) 100 % of control and 107 % of control and 114 % of control; (dose: 25.0 mg/kg/injection, schedule: Q01DX009 (ip), vehicle: Klucel (hydroxypropylcellulose) (HPC)) 102 % of control and 107 % of control; (dose: 50.0 mg/kg/injection, schedule: Q01DX009 (ip), vehicle: Klucel (hydroxypropylcellulose) (HPC)) 106 % of control.

For the molecule `O=C1C=CC(=Nc2cccc3c(N=C4C=CC(=O)O4)cccc23)O1`, the T/C runs as follows: (dose: 25.0 mg/kg/injection, schedule: Q01DX005 (ip), vehicle: Klucel (hydroxypropylcellulose) (HPC)) 107 % of control; under setting [10], 111 % of control; under setting [11], 115 % of control.

With `C[C@@H]1CN(c2ccccc2)C[C@H](C)OS(=O)O1` (stereo partly drawn), the T/C is 105 % of control under setting [12]; 96 % of control under setting [10]; 103 % of control under setting [13]; 100 % of control under setting [11]; 97 % of control under setting [14]; 93 % of control (dose: 200.0 mg/kg/injection, schedule: Q01DX005 (ip), vehicle: Klucel (hydroxypropylcellulose) (HPC)).

Regarding `O=S(=O)(O)CCNC(=S)C(=S)NCCS(=O)(=O)O`, the T/C reads like this: under setting [5], 100 % of control; under setting [6], 100 % of control; under setting [7], 101 % of control.

For `C=C1C(O)C2(O)OCC34C(CC5C(C)=CC(=O)C(O)C5(C)C23)OC(=O)C(OC(=O)C/C=C(\C)CCCCC)C14` (stereo not drawn), the T/C (dose: 2.0 mg/kg/injection, schedule: Q01DX005 (ip), vehicle: saline + alcohol) was 161 % of control; the T/C (dose: 4.0 mg/kg/injection, schedule: Q01DX005 (ip), vehicle: saline + alcohol) is 168 % of control and 169 % of control.

On to `Cn1nc(-c2ccccc2)c(-c2cc(-c3ccccc3)n[nH]2)c(N)c1=O`, for which the T/C is 87 % of control under setting [8]; 89 % of control under setting [9]; 97 % of control (dose: 240.0 mg/kg/injection, schedule: Q01DX005 (ip), vehicle: saline with Tween-80).

In the case of `NCC(CC(=O)O)c1ccc(Cl)cc1` (stereo not drawn), the T/C by setting is: under setting [10], 94 % of control; under setting [11], 93 % of control.

Turning to `O=C/C(Cl)=C(/Cl)C(=O)O`, the T/C (dose: 2.5 mg/kg/injection, schedule: Q01DX009 (ip), vehicle: saline with Tween-80) is 110 % of control and 123 % of control; the T/C (dose: 5.0 mg/kg/injection, schedule: Q01DX009 (ip), vehicle: saline with Tween-80) was 117 % of control and 121 % of control; the T/C (dose: 10.0 mg/kg/injection, schedule: Q01DX009 (ip), vehicle: saline with Tween-80) was 120 % of control and 121 % of control.

Turning to `COc1nc(N)nc2c1ncn2C1OC(CO)CC1O` (stereo not drawn), the T/C was 86 % of control under setting [3]; 88 % of control under setting [4]; 97 % of control (dose: 200.0 mg/kg/injection, schedule: Q01DX005 (ip), vehicle: saline with Tween-80).

Consider `Nc1[nH]c(=S)[nH]c(=O)c1N=Cc1ccc(Cl)c(Cl)c1`, for which the T/C by setting is: under setting [12], 100 % of control; under setting [13], 100 % of control and 102 % of control and 114 % of control; under setting [14], 103 % of control (2×) and 116 % of control; (dose: 400.0 mg/kg/injection, schedule: Q01DX001 (ip), vehicle: Klucel (hydroxypropylcellulose) (HPC)) 107 % of control and 110 % of control.

With `C=C1C(=O)OC2/C=C(\C)CC(O)/C=C(\C)CC(OC(=O)/C(=C\C)COC(C)=O)C12` (stereo not drawn), the T/C is, setting by setting: (dose: 6.25 mg/kg/injection, schedule: Q01DX009 (ip), vehicle: saline with Tween-80) 98 % of control; (dose: 12.5 mg/kg/injection, schedule: Q01DX009 (ip), vehicle: saline with Tween-80) 97 % of control; (dose: 25.0 mg/kg/injection, schedule: Q01DX009 (ip), vehicle: saline with Tween-80) 104 % of control; under setting [15], 104 % of control.

As for `Cc1ccc(S(=O)(=O)Nn2nnc(-c3ccccc3)n2)cc1`, the T/C reads like this: under setting [1], 98 % of control; under setting [2], 102 % of control; (dose: 200.0 mg/kg/injection, schedule: Q04DX003 (ip), vehicle: Klucel (hydroxypropylcellulose) (HPC)) 102 % of control.

Consider `O=C1NC(=O)C2(CCCc3ccc([N+](=O)[O-])cc32)N1` (stereo not drawn), for which the T/C is 99 % of control under setting [15]; 99 % of control (dose: 100.0 mg/kg/injection, schedule: Q01DX009 (ip), vehicle: saline with Tween-80); 97 % of control (dose: 200.0 mg/kg/injection, schedule: Q01DX009 (ip), vehicle: saline with Tween-80).
